System: serum samples from rats
Assay: Metabolomics of serum samples from rats chronically treated with Li or VPA
Format: in vivo, rat
Conditions: chronic (4-weeks) treatment; for 2,3-Diphosphoglyceric acid Mean / 2-Hydroxyglutaric acid Mean / 2-Oxoglutaric acid Mean / 2-Oxoisovaleric acid Mean / 2-Phosphoglyceric acid Mean / 3-Phosphoglyceric acid Mean / ADP-ribose Mean / AMP Mean / ATP Mean / Ala Mean / Arg Mean / Argininosuccinic acid Mean / Asn Mean / Asp Mean / Betaine Mean / Carnitine Mean / Carnosine Mean / Choline Mean / Citric acid Mean / Citrulline Mean / Creatine Mean / Creatinine Mean / Cystathionine Mean / Fructose 1,6-diphosphate Mean / Fructose 6-phosphate Mean / Fumaric acid Mean / GDP Mean / GMP Mean / GTP Mean / Gln Mean / Glu Mean / Glucose 6-phosphate Mean / Glutathione (GSSG) Mean / Gly Mean / Glycerol 3-phosphate Mean / Glycolic acid Mean / His Mean / Hydroxyproline Mean / IMP Mean / Ile Mean / Isocitric acid Mean / Lactic acid Mean / Leu Mean / Lys Mean / Malic acid Mean / Met Mean / Mevalonic acid Mean / N,N-Dimethylglycine Mean / N-Carbamoylaspartic acid Mean / NAD^+ Mean / Ornithine Mean / Phe Mean / Phosphocreatine Mean / Pro Mean / Putrescine Mean / Pyruvic acid Mean / Ribose 1-phosphate Mean / Ribose 5-phosphate Mean / Ribulose 5-phosphate Mean / Sarcosine Mean / Ser Mean / Succinic acid Mean / Thr Mean / Trp Mean / Tyr Mean / UDP-glucose Mean / Urea Mean / Uric acid Mean / Val Mean / cAMP Mean / cGMP Mean / cis-Aconitic acid Mean / β-Ala Mean: rat serum
Description: Data from human samples are presented as mean±standard deviation (SD). Statistical analysis was performed using SAS software version 9.3 (SAS Institute, Cary, N.C.). Analyses of metabolites between control and BD groups were performed using unpaired t-tests and Wilcoxon rank sum tests. A logistic regression model with a stepwise selection method was used for the multivariate analysis and multiple regression analysis (consistent with description in Allen et al., Technometrics. 1974; 16(1):125-127; and Miller et al., Chapman and Hall. 1974, which are incorporated in their entireties by reference herein). […] The Mann-Whitney U test (two-tailed) was used to evaluate changes in expression levels of the ACO and IDH genes between control and BD groups. Rat data are presented as mean±SD. To determine the effects of drug treatment, a one-way ANOVA, followed by the post hoc Dunnett's test was used. P values of less than 0.05 for two-tailed tests were considered statistically significant.
The CSF concentrations of 116 major metabolites from several pathways were measured. […] Male Sprague-Dawley rats (Japan SLC Inc., Shizuoka, Japan) aged 6 weeks old were used in this study. All rats were housed in groups of three per cage in a room maintained at 23° C.±2° C. and 60±10% humidity with a 12/12 hour light/dark cycle (lights on at 7:00 a.m.). The rats were given free access to food and water. Animal care and use were conducted in accordance with the Institutional Guidelines for Animal Care and Use of Otsuka Pharmaceutical Co., Ltd. (Tokushima, Japan). […] The drinking water was replaced twice a week. […] All animals were decapitated on day 30 after CSF sampling, and brain regions (prefrontal cortex, and hippocampus) were dissected rapidly on ice. Metabolomic analyses of rat CSF samples were performed as described herein.
The serum concentrations of 116 major metabolites from several pathways were measured.

O=C([O-])[O-].[Li+].[Li+] [Li, lithium carbonate]
2,3-Diphosphoglyceric acid Mean: 2.3
2-Hydroxyglutaric acid Mean: 2.7
2-Oxoglutaric acid Mean: 64
2-Oxoisovaleric acid Mean: 12
2-Phosphoglyceric acid Mean: 0.7
3-Phosphoglyceric acid Mean: 5.5
ADP-ribose Mean: 0.2
AMP Mean: 0.5
ATP Mean: 4.3
Ala Mean: 671
Arg Mean: 206
Argininosuccinic acid Mean: 0.6
Asn Mean: 87
Asp Mean: 13
Betaine Mean: 259
Carnitine Mean: 65
Carnosine Mean: 0.2
Choline Mean: 15
Citric acid Mean: 212
Citrulline Mean: 103
Creatine Mean: 104
Creatinine Mean: 26
Cystathionine Mean: 1.2
Fructose 1,6-diphosphate Mean: 0.3
Fructose 6-phosphate Mean: 0.10
Fumaric acid Mean: 4.0
GDP Mean: 0.5
GMP Mean: 0.12
GTP Mean: 2.0
Gln Mean: 817
Glu Mean: 140
Glucose 6-phosphate Mean: 0.6
Glutathione (GSSG) Mean: 0.5
Gly Mean: 340
Glycerol 3-phosphate Mean: 3.1
Glycolic acid Mean: 9.4
His Mean: 89
Hydroxyproline Mean: 65
IMP Mean: 0.14
Ile Mean: 119
Isocitric acid Mean: 9.5
Lactic acid Mean: 2,764
Leu Mean: 199
Lys Mean: 468
Malic acid Mean: 23
Met Mean: 59
Mevalonic acid Mean: 0.05
N,N-Dimethylglycine Mean: 18
N-Carbamoylaspartic acid Mean: 0.02
NAD^+ Mean: 1.1
Ornithine Mean: 75
Phe Mean: 67
Phosphocreatine Mean: 0.7
Pro Mean: 272
Putrescine Mean: 0.4
Pyruvic acid Mean: 126
Ribose 1-phosphate Mean: 0.3
Ribose 5-phosphate Mean: 0.04
Ribulose 5-phosphate Mean: 0.2
Sarcosine Mean: 7.2
Ser Mean: 319
Succinic acid Mean: 17
Thr Mean: 298
Trp Mean: 148
Tyr Mean: 95
UDP-glucose Mean: 0.6
Urea Mean: 6,360
Uric acid Mean: 23
Val Mean: 283
cAMP Mean: 0.04
cGMP Mean: 0.02
cis-Aconitic acid Mean: 4.3
β-Ala Mean: 2.0
serum levels of 2-oxoglutaric acid (rats, vs control): significantly increased
serum levels of N-acetylglutamic acid (rats, vs control): not altered
serum levels of arginine (rats, vs control): not altered
serum levels of pyruvic acid (rats, vs control): not altered
serum levels of serine (rats, vs control): not altered
serum levels of β-alanine (rats, vs control): not altered

CCCC(CCC)C(=O)[O-].[Na+] [VPA, valproic acid sodium salt]
2,3-Diphosphoglyceric acid Mean: 2.1
2-Hydroxyglutaric acid Mean: 1.5
2-Oxoglutaric acid Mean: 29
2-Oxoisovaleric acid Mean: 15
2-Phosphoglyceric acid Mean: 0.6
3-Phosphoglyceric acid Mean: 5.0
ADP-ribose Mean: 0.13
AMP Mean: 0.4
ATP Mean: 4.2
Ala Mean: 757
Arg Mean: 206
Argininosuccinic acid Mean: 0.4
Asn Mean: 77
Asp Mean: 12
Betaine Mean: 287
Carnitine Mean: 78
Carnosine Mean: 0.2
Choline Mean: 13
Citric acid Mean: 151
Citrulline Mean: 92
Creatine Mean: 211
Creatinine Mean: 25
Cystathionine Mean: 1.1
Fructose 1,6-diphosphate Mean: 0.3
Fructose 6-phosphate Mean: 0.09
Fumaric acid Mean: 2.6
GDP Mean: 0.4
GMP Mean: 0.07
GTP Mean: 1.9
Gln Mean: 1,001
Glu Mean: 173
Glucose 6-phosphate Mean: 0.6
Glutathione (GSSG) Mean: 0.4
Gly Mean: 488
Glycerol 3-phosphate Mean: 3.5
Glycolic acid Mean: 11
His Mean: 90
Hydroxyproline Mean: 65
IMP Mean: 0.13
Ile Mean: 119
Isocitric acid Mean: 8.2
Lactic acid Mean: 2,751
Leu Mean: 207
Lys Mean: 696
Malic acid Mean: 12
Met Mean: 53
Mevalonic acid Mean: 1.5E−04
N,N-Dimethylglycine Mean: 11
N-Carbamoylaspartic acid Mean: 0.02
NAD^+ Mean: 1.1
Ornithine Mean: 76
Phe Mean: 65
Phosphocreatine Mean: 0.9
Pro Mean: 220
Putrescine Mean: 0.3
Pyruvic acid Mean: 107
Ribose 1-phosphate Mean: 0.4
Ribose 5-phosphate Mean: 0.04
Ribulose 5-phosphate Mean: 0.2
Sarcosine Mean: 5.5
Ser Mean: 319
Succinic acid Mean: 10
Thr Mean: 217
Trp Mean: 110
Tyr Mean: 89
UDP-glucose Mean: 0.6
Urea Mean: 5,050
Uric acid Mean: 25
Val Mean: 290
cAMP Mean: 0.05
cGMP Mean: 0.02
cis-Aconitic acid Mean: 3.1
β-Ala Mean: 1.9
serum levels of N-acetylglutamic acid (rats, vs control): not altered
serum levels of arginine (rats, vs control): not altered
serum levels of pyruvic acid (rats, vs control): not altered
serum levels of serine (rats, vs control): not altered
serum levels of β-alanine (rats, vs control): not altered

From patent US10309967B2, “Methods of diagnosing bipolar disorders and screening for therapeutic compounds” (National University Corporation Chiba University, priority 2015, dated 2019)
